Measured values taken from article PMC12323867 (RSC Medicinal Chemistry, 2025).

Test system: H3K4me2 in HCT116 cells
Experiment: Histone methylation H3K4me2 by western blot
Type: cell-based, human
Settings: HCT116, 0.1–10 μM, 24 hours, H3K4me2 antibody
Protocol: We next screened 25–33 and SP2509 over a concentration range of 0.1–10 μM in HCT116 cells (obtained from ATCC, CCL-247) and determined LSD1 abundance after 24 hours with an antibody for LSD1 (Fig. S4 ^†). […] Using the same conditions, we also determined the effects of SP2509, 25, 27, 28, 30 and 31 on histone H3 lysine 4 dimethyl (H3K4me2) a validated substrate for LSD1 using a specific antibody for H3K4me2 (Fig. S4 ^†).
Compounds 39–41, 49, 52 and 54 were screened for LSD1 degradation in HCT116 cells using a specific antibody for LSD1. This was performed side-by-side with TCP. Compounds were tested at concentration ranges of 0.2–20 μM and LSD1 abundance was quantified at 24 hours (Fig. S5 ^†). 49, 52 and 54 were also evaluated at 48 and 72 hours. […] We also determined the effects of these compounds on the histone methyl marker H3K4me2 (Fig. S5 and S6 ^†).
2.5 Protocols for LSD1 degradation and histone methylation in HCT116 cells HCT116 human colon carcinoma cells were grown in Dulbecco’s Modified Eagle Medium (DMEM) supplemented with Fetal Bovine Serum (FBS, 10% final concentration) and 1x glutamine/penicillin/streptomycin. Cells were incubated at 37 °C and 5% CO2. Cells were treated with compounds (0.1-20 µM) with a final DMSO volume of 0.04%. DMSO (0.04%) treated and untreated (WT) cells were included as controls.
HCT116 cells were seeded into six well plates (400000 cells per well) and after requisite compound treatment time (24h, 48h, 72h) cells were harvested and either snap-frozen in liquid nitrogen or lysed in lysis buffer (50mM Tris-HCl, 150 mM NaCl, 0.5% NP-40, 0.5% Triton X-100 + protease inhibitor) on ice for 30 mins. This was centrifuged (15000 rpm, 4 °C, 15 mins) and the supernatant collected.
H2SO4 (0.4 M, equal volume) was added to the pellets for histone extraction and the tubes incubated overnight at 4 °C. Following this, the histone extract was centrifuged (15000 rpm, 4 °C, 15 mins) and the supernatant collected. Protein concentrations of whole cell extract were quantified via Bradford Assay using BIO-RAD Protein Assay Dye Reagent Concentrate.
Western blots were run on NuPAGE 4-12% Bis-Tris gels, with 30 µg of protein (whole cell extract) or an equivalent volume of histone extract loaded per lane, with all extracts dyed with 4x NuPAGE LDS Sample Buffer. PageRuler Plus Prestained Ladder was used as a reference. Gel electrophoresis was carried out at 140 V for 60-90 mins, following which the proteins were transferred onto nitrocellulose membrane at 30 V for 60 mins. Membranes were blocked in LI-COR Intercept Blocking Buffer overnight at RT on a roller, following which the membrane was probed with primary antibodies for 1 h at RT. The membrane was washed with PBS + 0.1% Tween (3 x 10 mins), then incubated with secondary antibodies for 50 mins at RT. The membrane was washed again (PBS Tween 2 x 10 mins, PBS 1 x 10 mins) following which the blot was visualised with the Odyssey Infrared Imaging System. Image processing and quantification was performed with ImageStudio Lite. […]
a-tubulin (mouse) – Sigma, t5168 (1:10000 dilution)

## C/C(=N\NC(=O)c1cccc(S(=O)(=O)N2CCOCC2)c1)c1cc(Cl)ccc1O [SP2509, reference compound]
  H3K4me2 abundance: no increase in H3K4me2
